In US10793542B2, “Hetroarylamine compounds for modulating the hedgehog pathway and preparing method and uses thereof” (DEVELOPMENT CENTER FOR BIOTECHNOLOGY, priority 2016, dated 2020):

Experiments:
Format in all cases: cell-based
[1] = tested on: hedgehog pathway (pGL3-7xGli-Luciferase reporter in C3H10T1/2 cells); assay: Transient transfection of C3H10T1/2 and Gli-Luc reporter assay with SAG stimulation; conditions: Mus musculus, C3H 10T1/2, SAG 20 nM, 48 hr, read-out: Inhibition of Gli-Luc expression [IC50
Description: A cell-based screen for inhibitors of the hedgehog pathway was performed using a transient transfection system in C3H10T1/2 cells with pGL3-7xGli-Luciferase reporter plasmids C3H10T1/2 cells (ATCC, cat.#CCL-226) were seeded into 6-well plates at 8×10^4 cells/well in a BME medium containing 10% heat-inactivated FBS. Cells were transfected the next morning with 500 ng/well pGL3-7xGli-Luciferase reporter plasmids and 100 ng/well pRL-TK Renilla luciferase reporter plasmids (Promega)using GeneJuice transfection reagent (Novagene). After 24 h, transfected cells were collected by trypsin treatment and re-plated in 96-well plates in an RPMI medium containing 0.5% FBS with a density of 1.5×10^4 cells/well. Compounds were dissolved in DMSO with serial dilutions and were then added to the assay plate. SAG (Hh-Ag 1.3) (Santa Cruz) was added to the assay plated for a final concentration 20 nM. The assay plates were incubated at 37° C. for 48 hr.
(§1) Firefly luciferase and Renilla luciferase activity was determined using the Dual-Glo Luciferase reporter assay system (Promega) with a Victor3 plate reader (PerkinElmer Life Sciences). Firefly luciferase readings were normalized to Renilla luciferase to correct for transfection efficiency. Luminance reading for the C3H10T1/2-Gli-Luc assay was normalized based on DMSO control with SAG stimulation (100% pathway activity) and without SAG stimulation (0% pathway activity). IC50 values, defined as the inflection point of the logistic curve, were determined by nonlinear regression using the Prism 5 software (GraphPad).

Smo wild type = target: T1, Smo wild type (Homo sapiens, UniProt Q99835); assay: Reporter assay of C3H10T1/2-Gli-Luc cells transfected with wild-type Smo, without SAG; conditions: C3H10T1/2 cells transfected with pLPCX-SMO, no SAG, 48 hr; read-out: Inhibition of C3H10T1/2-Gli-Luc-Smo-WT [IC50
T1 construct: expressed in transfected cells; host or cells: C3H10T1/2 cells (ATCC CCL-226), transient transfection with pLPCX-SMO
Description: (§2) A transient transfection system with a Smo wild type or a Smo D473H mutant was also used for compound screening. For the SMO inhibition experiments, cells were transfected with an additional 500 ng/well of wild-type or D473H-mutant type SMO construct (pLPCX-SMO or pLPCX-SMO-D473H). After 24 h, transfected cells were collected by trypsin treatment and re-plated in 96-well plates in an RPMI medium containing 0.5% FBS with a density of 1.5×10^4 cells/well. Compounds were dissolved in DMSO with serial dilutions and were then added to the assay plate. The assay plates were incubated at 37° C. for 48 hr.
as §1
(§3) The reporter assay of C3H10T1/2-Gli-Luc cells transfected with a wild-type, D473H mutant Smo mutant was carried out with the same protocol but without SAG stimulation. Luminance reading for the SMO inhibition experiments assay was normalized based on DMSO control (100% of the pathway activity) and a known Smo antagonist (ALLO-2 at 10 μM, 0% of the pathway activity).

Smo D473H mutant = target: T2, Smo D473H mutant (Homo sapiens, UniProt Q99835, D473H); assay: Reporter assay of C3H10T1/2-Gli-Luc cells transfected with Smo D473H mutant, without SAG; conditions: C3H10T1/2 cells transfected with pLPCX-SMO-D473H, no SAG, 48 hr; read-out: Inhibition of C3H10T1/2-Gli-Luc-Smo-D473H [IC50
T2 construct: expressed in transfected cells; host or cells: C3H10T1/2 cells (ATCC CCL-226), transient transfection with pLPCX-SMO-D473H
Description: as §2, §1, §3

T2 sequence (Q99835 28-787 D473H): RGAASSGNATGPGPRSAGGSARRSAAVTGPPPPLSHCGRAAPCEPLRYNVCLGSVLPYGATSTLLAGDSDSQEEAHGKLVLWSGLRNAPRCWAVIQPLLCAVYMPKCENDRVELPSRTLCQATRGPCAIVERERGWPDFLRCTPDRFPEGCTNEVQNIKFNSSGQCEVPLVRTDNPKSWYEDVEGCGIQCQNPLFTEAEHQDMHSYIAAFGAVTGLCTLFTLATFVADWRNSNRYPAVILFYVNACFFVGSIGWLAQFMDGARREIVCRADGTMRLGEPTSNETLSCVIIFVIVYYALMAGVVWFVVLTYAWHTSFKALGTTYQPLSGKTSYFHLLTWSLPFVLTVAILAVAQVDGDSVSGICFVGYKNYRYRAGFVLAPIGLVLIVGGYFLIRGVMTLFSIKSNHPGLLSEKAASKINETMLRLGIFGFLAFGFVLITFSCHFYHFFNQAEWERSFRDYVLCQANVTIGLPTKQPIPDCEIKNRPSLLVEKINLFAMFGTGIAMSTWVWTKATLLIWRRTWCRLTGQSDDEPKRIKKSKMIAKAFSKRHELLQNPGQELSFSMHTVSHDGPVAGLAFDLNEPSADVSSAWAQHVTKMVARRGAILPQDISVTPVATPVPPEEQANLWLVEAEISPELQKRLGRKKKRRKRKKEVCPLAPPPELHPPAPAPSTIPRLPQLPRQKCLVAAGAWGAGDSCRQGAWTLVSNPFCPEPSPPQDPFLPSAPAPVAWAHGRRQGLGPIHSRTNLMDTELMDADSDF
T1 sequence (Q99835 28-787): as the sequence (Q99835 28-787 D473H) above, with H446D counted along it

IC50 [1] [nM] | IC50 (Smo wild type) [nM] | IC50 (Smo D473H mutant) [nM] | SMILES
100 to 1000 | 100 to 1000 | > 1000 | CSc1cnc(Nc2ccc(C(=O)Nc3c(C)cccc3C)cc2)nc1-c1ccc(OC(F)(F)F)cc1 [Compound 1, N-(2,6-Dimethyl-phenyl)-4-[5-methylsulfanyl-4-(4-trifluoromethoxy-phenyl) -pyrimidin-2-ylamino]-benzamide]
100 to 1000 | 100 to 1000 | 100 to 1000 | CSc1cnc(Nc2ccc(C(=O)Nc3c(C)cccc3C)cc2)nc1-c1ccc(C#N)cc1 [Compound 2, 4-[4-(4-Cyano-phenyl)-5-methylsulfanyl-pyrimidin-2-ylamino]-N-(2,6-dimethyl-phenyl)-benzamide]
100 to 1000 | 100 to 1000 | 100 to 1000 | CSc1cnc(Nc2ccc(C(=O)Nc3ccccc3)cc2)nc1-c1ccc(C#N)cc1 [Compound 3, 4-[4-(4-Cyano-phenyl)-5-methylsulfanyl-pyrimidin-2-ylamino]-N-phenyl-benzamide]
100 to 1000 | 100 to 1000 | 100 to 1000 | CSc1cnc(Nc2ccc(C(=O)Nc3ccc(C(F)(F)F)c(Cl)c3)cc2)nc1-c1ccc(C#N)cc1 [Compound 4, N-(3-Chloro-4-trifluoromethyl-phenyl)-4-[4-(4-cyano-phenyl)-5-methylsulfanyl-pyrimidin-2-ylamino]-benzamide]
100 to 1000 | 100 to 1000 | 100 to 1000 | CSc1cnc(Nc2ccc(C(=O)Nc3ccccc3)cc2)nc1-c1cccnc1F [Compound 5, 4-[4-(2-Fluoro-pyridin-3-yl)-5-methylsulfanyl-pyrimidin-2-ylamino]-N-phenyl-benzamide]
< 100 | < 100 | < 100 | CSc1cnc(Nc2ccc(C(=O)Nc3c(C)cccc3C)cc2)nc1-c1cccnc1F [Compound 6, N-(2,6-Dimethyl-phenyl)-4-[4-(2-fluoro-pyridin-3-yl)-5-methylsulfanyl-pyrimidin-2-ylamino]-benzamide]
100 to 1000 | 100 to 1000 | 100 to 1000 | CCOc1ccc(-c2nc(Nc3ccc(C(=O)Nc4ccc(Cl)c(C(F)(F)F)c4)cc3)ncc2SC)cn1 [Compound 7, N-(4-Chloro-3-trifluoromethyl-phenyl)-4-[4-(6-ethoxy-pyridin-3-yl)-5-methylsulfanyl-pyrimidin-2-ylamino]-benzamide]
100 to 1000 | 100 to 1000 | 100 to 1000 | CSc1cnc(Nc2ccc(C(=O)Nc3c(F)cccc3F)cc2)nc1-c1cccnc1F [Compound 8, N-(2,6-Difluoro-phenyl)-4-[4-(2-fluoro-pyridin-3-yl)-5-methylsulfanyl-pyrimidin-2-ylamino]-benzamide]
< 100 | < 100 | 100 to 1000 | COc1cccc(OC)c1NC(=O)c1ccc(Nc2ncc(SC)c(-c3cccnc3F)n2)cc1 [Compound 9, N-(2,6-Dimethoxy-phenyl)-4-[4-(2-fluoro-pyridin-3-yl)-5-methylsulfanyl-pyrimidin-2-ylamino]-benzamide]
100 to 1000 | 100 to 1000 | 100 to 1000 | CSc1cnc(Nc2ccc(C(=O)Nc3c(F)cccc3F)cc2)nc1-c1cccnc1 [Compound 10, N-(2,6-Difluoro-phenyl)-4-(5-methylsulfanyl-4-pyridin-3-yl-pyrimidin-2-ylamino)-benzamide]
100 to 1000 | 100 to 1000 | 100 to 1000 | CSc1cnc(Nc2ccc(C(=O)Nc3ccccc3C)cc2)nc1-c1cccnc1F [Compound 11, 4-[4-(2-Fluoro-pyridin-3-yl)-5-methylsulfanyl-pyrimidin-2-ylamino]-N-o-tolyl-benzamide]
100 to 1000 | 100 to 1000 | 100 to 1000 | CSc1cnc(Nc2ccc(C(=O)Nc3c(C)cccc3C)cc2F)nc1-c1cccnc1F [Compound 12, N-(2,6-Dimethyl-phenyl)-3-fluoro-4-[4-(2-fluoro-pyridin-3-yl)-5-methylsulfanyl-pyrimidin-2-ylamino]-benzamide]
100 to 1000 | 100 to 1000 | 100 to 1000 | COc1cccc(OC)c1NC(=O)c1ccc(Nc2ncc(SC)c(-c3cccnc3F)n2)c(F)c1 [Compound 13, N-(2,6-Dimethoxy-phenyl)-3-fluoro-4-[4-(2-fluoro-pyridin-3-yl)-5-methylsulfanyl-pyrimidin-2-ylamino]-benzamide]
< 100 | 100 to 1000 | 100 to 1000 | COc1cccc(C)c1NC(=O)c1ccc(Nc2ncc(SC)c(-c3cccnc3F)n2)cc1 [Compound 14, 4-[4-(2-Fluoro-pyridin-3-yl)-5-methylsulfanyl-pyrimidin-2-ylamino]-N-(2-methoxy-6-methyl-phenyl)-benzamide]
< 100 | < 100 | 100 to 1000 | COc1cccc(C)c1NC(=O)c1ccc(Nc2ncc(SC)c(-c3cccnc3F)n2)c(F)c1 [Compound 15, 3-Fluoro-4-[4-(2-fluoro-pyridin-3-yl)-5-methylsulfanyl-pyrimidin-2-ylamino]-N-(2-methoxy-6-methyl-phenyl)-benzamide]
100 to 1000 | 100 to 1000 | 100 to 1000 | CSc1cnc(Nc2ccc(C(=O)Nc3ccccc3C)cc2F)nc1-c1cccnc1F [Compound 16, 3-Fluoro-4-[4-(2-fluoro-pyridin-3-yl)-5-methylsulfanyl-pyrimidin-2-ylamino]-N-o-tolyl-benzamide]
100 to 1000 | 100 to 1000 | 100 to 1000 | COc1cccc(C)c1NC(=O)c1ccc(Nc2ncc(SC)c(-c3ccc(F)nc3)n2)c(F)c1 [Compound 17, 3-Fluoro-4-[4-(6-fluoro-pyridin-3-yl)-5-methylsulfanyl-pyrimidin-2-ylamino]-N-(2-methoxy-6-methyl-phenyl)-benzamide]
100 to 1000 | 100 to 1000 | 100 to 1000 | CSc1cnc(Nc2ccc(C(=O)Nc3ccc(C#N)cc3)cc2)nc1-c1cccnc1F [Compound 18, N-(4-Cyano-phenyl)-4-[4-(2-fluoro-pyridin-3-yl)-5-methylsulfanyl-pyrimidin-2-ylamino]-benzamide]
100 to 1000 | 100 to 1000 | 100 to 1000 | CSc1cnc(Nc2ccc(C(=O)Nc3ccccc3C)cc2)nc1-c1ccccc1 [Compound 19, 4-(5-Methylsulfanyl-4-phenyl-pyrimidin-2-ylamino)-N-o-tolyl-benzamide]
< 100 | < 100 | 100 to 1000 | CSc1cnc(Nc2ccc(C(=O)Nc3cc(CN4CCOCC4)ccc3C)cc2)nc1-c1ccccc1 [Compound 20, N-(2-Methyl-5-morpholin-4-ylmethyl-phenyl)-4-(5-methylsulfanyl-4-phenyl-pyrimidin-2-ylamino)-benzamide]
< 100 | < 100 | 100 to 1000 | COc1cccc(OC)c1NC(=O)c1ccc(Nc2ncc(SC)c(-c3ccccc3)n2)cc1 [Compound 21, N-(2,6-Dimethoxy-phenyl)-4-(5-methylsulfanyl-4-phenyl-pyrimidin-2-ylamino)-benzamide]
< 100 | < 100 | 100 to 1000 | COc1cccc(OC)c1NC(=O)c1ccc(Nc2ncc(SC)c(-c3ccc(OC(F)(F)F)cc3)n2)cc1 [Compound 22, N-(2,6-Dimethoxy-phenyl)-4-[5-methylsulfanyl-4-(4-trifluoromethoxy-phenyl)-pyrimidin-2-ylamino]-benzamide]
100 to 1000 | < 100 | 100 to 1000 | CSc1cnc(Nc2ccc(C(=O)Nc3ccccc3C)cc2)nc1-c1ccc(OC(F)(F)F)cc1 [Compound 23, 4-[5-Methylsulfanyl-4-(4-trifluoromethoxy-phenyl)-pyrimidin-2-ylamino]-N-o-tolyl-benzamide]
